Converted amounts (≈) assume the structure as drawn.
Legend:
Escherichia coli [1] = experiment: Antibacterial activity against multidrug-resistant Escherichia coli IS 54 isolated from water source assessed as growth inhibition after 18 to 24 hrs by broth microdilution method; conditions: IS 54, Water
Escherichia coli [2] = experiment: Antibacterial activity against ampicillin/ciprofloxacin/gentamicin/tetracycline-resistant Escherichia coli 555 assessed as growth inhibition after 18 to 24 hrs by broth microdilution method; format: functional
Escherichia coli [3] = experiment: Antibacterial activity against cefazolinl/ampicillin/piperacillin/cefuroxime/cefepime/cefotaxime/tetracycline/trimethoprim-resistant Escherichia coli KK16 isolated from water source assessed as growth inhibition after 18 to 24 hrs by broth microdilution method
Escherichia coli [4] = experiment: Antibacterial activity against ampicillin/kanamycin/trimethoprim/tetracyclin/ciprofloxacin/nalidixic acid-resistant Escherichia coli 81 assessed as growth inhibition after 18 to 24 hrs by broth microdilution method; format: functional
Escherichia coli [5] = experiment: Bactericidal activity against Escherichia coli DH5[alpha] by agar plating method; format: functional
Escherichia coli [6] = experiment: Bactericidal activity against ampicillin/tetracycline-resistant Escherichia coli IP18 isolated from water source by agar plating method
Escherichia coli [7] = experiment: Bactericidal activity against Escherichia coli ATCC 25922 by agar plating method; format: functional
Escherichia coli [8] = experiment: Antibacterial activity against chloramphenicol/ampicillin/trimethoprim/ciprofloxacin/nalidixic acid-resistant Escherichia coli 59 assessed as growth inhibition after 18 to 24 hrs by broth microdilution method; format: functional
Escherichia coli [9] = experiment: Antibacterial activity against tetracycline/trimethoprim-resistant Escherichia coli IST isolated from water source assessed as growth inhibition after 18 to 24 hrs by broth microdilution method
Escherichia coli [10] = experiment: Bactericidal activity against ampicillin/tetracycline/gentamicin-resistant Escherichia coli 451 by agar plating method; format: functional
Escherichia coli [11] = experiment: Antibacterial activity against ciprofloxacin-resistant Escherichia coli 72 assessed as growth inhibition after 18 to 24 hrs by broth microdilution method; format: functional
Escherichia coli [12] = experiment: Antibacterial activity against gentamicin/kanamycin/tetracycline/nalidixic acid-resistant Escherichia coli 360 assessed as growth inhibition after 18 to 24 hrs by broth microdilution method; format: functional
Escherichia coli [13] = experiment: Bactericidal activity against chloramphenicol/ampicillin/kanamycin/trimethoprim/ciprofloxacin/nalidixic acid-resistant Escherichia coli 151 by agar plating method; format: functional
Escherichia coli [14] = experiment: Antibacterial activity against cefazolinl/ampicillin/piperacillin/cefuroxime/cefepime/cefotaxime/tetracycline/ciprofloxacin-resistant Escherichia coli NG3 isolated from water source assessed as growth inhibition after 18 to 24 hrs by broth microdilution method
Escherichia coli [15] = experiment: Bactericidal activity against cefazolinl/ampicillin/piperacillin/cefuroxime/cefepime/cefotaxime/tetracycline/ciprofloxacin-resistant Escherichia coli NG3 isolated from water source by agar plating method
Escherichia coli [16] = experiment: Bactericidal activity against chloramphenicol/ampicillin/kanamycin/trimethoprim/ciprofloxacin/nalidixic acid-resistant Escherichia coli 132 by agar plating method; format: functional
Escherichia coli [17] = experiment: Antibacterial activity against ampicillin/tetracycline/piperacillin-resistant Escherichia coli WB31 isolated from water source assessed as growth inhibition after 18 to 24 hrs by broth microdilution method
Escherichia coli [18] = experiment: Antibacterial activity against ampicillin/trimethoprim/nalidixic acid-resistant Escherichia coli 118 assessed as growth inhibition after 18 to 24 hrs by broth microdilution method; format: functional
Escherichia coli [19] = experiment: Antibacterial activity against ampicillin/trimethoprim/cefazolinl/piperacillin/cefuroxime/cefoxitine/cefepime/cefotaxime-resistant Escherichia coli KP21 isolated from water source assessed as growth inhibition after 18 to 24 hrs by broth microdilution method
Escherichia coli [20] = experiment: Antibacterial activity against chloramphenicol/ampicillin/kanamycin/trimethoprim/ciprofloxacin/nalidixic acid-resistant Escherichia coli 151 assessed as growth inhibition after 18 to 24 hrs by broth microdilution method; format: functional
Escherichia coli [21] = experiment: Bactericidal activity against chloramphenicol/ampicillin/trimethoprim/ciprofloxacin/nalidixic acid-resistant Escherichia coli 59 by agar plating method; format: functional
Escherichia coli [22] = experiment: Bactericidal activity against cefazolinl/ampicillin/piperacillin/cefuroxime/cefepime/cefotaxime/tetracycline/trimethoprim-resistant Escherichia coli KK16 isolated from water source by agar plating method
Escherichia coli [23] = experiment: Bactericidal activity against ampicillin/trimethoprim/nalidixic acid-resistant Escherichia coli 118 by agar plating method; format: functional
Escherichia coli [24] = experiment: Antibacterial activity against ampicillin/tetracycline/gentamicin-resistant Escherichia coli 451 assessed as growth inhibition after 18 to 24 hrs by broth microdilution method; format: functional
Escherichia coli [25] = experiment: Antibacterial activity against Escherichia coli ATCC 25922 assessed as growth inhibition after 18 to 24 hrs by broth microdilution method; format: functional
Escherichia coli [26] = experiment: Bactericidal activity against chloroamphenicol/ampicillin/kanamycin/trimethoprim/ciprofloxacin/nalidixic acid-resistant Escherichia coli 85 by agar plating method; format: functional
Escherichia coli [27] = experiment: Bactericidal activity against ampicillin/chloramphenicol/tetracycline/trimethoprim/ciprofloxacin-resistant Escherichia coli KK45 isolated from water source by agar plating method
Escherichia coli [28] = experiment: Bactericidal activity against ampicillin/tetracycline/piperacillin-resistant Escherichia coli WB31 isolated from water source by agar plating method
Escherichia coli [29] = experiment: Antibacterial activity against ampicillin/tetracycline-resistant Escherichia coli IP18 isolated from water source assessed as growth inhibition after 18 to 24 hrs by broth microdilution method
Escherichia coli [30] = experiment: Bactericidal activity against ciprofloxacin-resistant Escherichia coli 72 by agar plating method; format: functional
Escherichia coli [31] = experiment: Antibacterial activity against ampicillin/trimethoprim/piperacillin-resistant Escherichia coli MKNJ isolated from water source assessed as growth inhibition after 18 to 24 hrs by broth microdilution method
Escherichia coli [32] = experiment: Antibacterial activity against chloramphenicol/ampicillin/kanamycin/trimethoprim/ciprofloxacin/nalidixic acid-resistant Escherichia coli 132 assessed as growth inhibition after 18 to 24 hrs by broth microdilution method; format: functional
Escherichia coli [33] = experiment: Antibacterial activity against ampicillin/chloramphenicol/tetracycline/trimethoprim/ciprofloxacin-resistant Escherichia coli KK45 isolated from water source assessed as growth inhibition after 18 to 24 hrs by broth microdilution method
Escherichia coli [34] = experiment: Bactericidal activity against ampicillin/ciprofloxacin/gentamicin/tetracycline-resistant Escherichia coli 555 by agar plating method; format: functional
Escherichia coli [35] = experiment: Bactericidal activity against ampicillin/kanamycin/trimethoprim/tetracyclin/ciprofloxacin/nalidixic acid-resistant Escherichia coli 81 by agar plating method; format: functional

COc1ccc(-c2nc3ccc(-c4nc5ccc(N6CCN(c7ccncc7)CC6)cc5[nH]4)cc3[nH]2)cc1OC
MIC50 (Escherichia coli [1]): 1 µg/mL (≈ 1.88 µM)
MIC90 (Escherichia coli [1]): 1.7 µg/mL (≈ 3.2 µM)
MIC50 (Escherichia coli [2]): 16 µg/mL (≈ 30.1 µM)
MIC90 (Escherichia coli [2]): 58.6 µg/mL (≈ 110 µM)
MIC50 (Escherichia coli [3]): 1 µg/mL (≈ 1.88 µM)
MIC90 (Escherichia coli [3]): 1.7 µg/mL (≈ 3.2 µM)
MIC50 (Escherichia coli [4]): 2 µg/mL (≈ 3.76 µM)
MIC90 (Escherichia coli [4]): 3.1 µg/mL (≈ 5.83 µM)
MBC (Escherichia coli [5]): 1 µg/mL (≈ 1.88 µM)
MBC (Escherichia coli [6]): 4 µg/mL (≈ 7.52 µM)
MBC (Escherichia coli [7]): 4 µg/mL (≈ 7.52 µM)
MIC50 (Escherichia coli [8]): 1 µg/mL (≈ 1.88 µM)
MIC90 (Escherichia coli [8]): 3.6 µg/mL (≈ 6.77 µM)
MIC50 (Escherichia coli [9]): 0.5 µg/mL (≈ 0.941 µM)
MIC90 (Escherichia coli [9]): 0.8 µg/mL (≈ 1.5 µM)
MBC (Escherichia coli [10]): 4 µg/mL (≈ 7.52 µM)
MIC50 (Escherichia coli [11]): 1 µg/mL (≈ 1.88 µM)
MIC90 (Escherichia coli [11]): 1.6 µg/mL (≈ 3.01 µM)
MIC50 (Escherichia coli [12]): 1 µg/mL (≈ 1.88 µM)
MIC90 (Escherichia coli [12]): 1.7 µg/mL (≈ 3.2 µM)
MBC (Escherichia coli [13]): 2 µg/mL (≈ 3.76 µM)
MIC50 (Escherichia coli [14]): 1 µg/mL (≈ 1.88 µM)
MIC90 (Escherichia coli [14]): 1.8 µg/mL (≈ 3.39 µM)
MBC (Escherichia coli [15]): 2 µg/mL (≈ 3.76 µM)
MBC (Escherichia coli [16]): 4 µg/mL (≈ 7.52 µM)
MIC50 (Escherichia coli [17]): 2 µg/mL (≈ 3.76 µM)
MIC90 (Escherichia coli [17]): 3.7 µg/mL (≈ 6.96 µM)
MIC50 (Escherichia coli [18]): 1 µg/mL (≈ 1.88 µM)
MIC90 (Escherichia coli [18]): 1.7 µg/mL (≈ 3.2 µM)
MIC50 (Escherichia coli [19]): 2 µg/mL (≈ 3.76 µM)
MIC90 (Escherichia coli [19]): 3.6 µg/mL (≈ 6.77 µM)
MIC50 (Escherichia coli [20]): 1 µg/mL (≈ 1.88 µM)
MIC90 (Escherichia coli [20]): 1.7 µg/mL (≈ 3.2 µM)
MBC (Escherichia coli [21]): 4 µg/mL (≈ 7.52 µM)
MBC (Escherichia coli [22]): 2 µg/mL (≈ 3.76 µM)
MBC (Escherichia coli [23]): 2 µg/mL (≈ 3.76 µM)
MIC50 (Escherichia coli [24]): 2 µg/mL (≈ 3.76 µM)
MIC90 (Escherichia coli [24]): 3.6 µg/mL (≈ 6.77 µM)
MIC50 (Escherichia coli [25]): 2 µg/mL (≈ 3.76 µM)
MIC90 (Escherichia coli [25]): 3.7 µg/mL (≈ 6.96 µM)
MBC (Escherichia coli [26]): 4 µg/mL (≈ 7.52 µM)
MBC (Escherichia coli [27]): 4 µg/mL (≈ 7.52 µM)
MBC (Escherichia coli [28]): 4 µg/mL (≈ 7.52 µM)
MIC50 (Escherichia coli [29]): 2 µg/mL (≈ 3.76 µM)
MIC90 (Escherichia coli [29]): 3.7 µg/mL (≈ 6.96 µM)
MBC (Escherichia coli [30]): 2 µg/mL (≈ 3.76 µM)
MIC50 (Escherichia coli [31]): 2 µg/mL (≈ 3.76 µM)
MIC90 (Escherichia coli [31]): 3.7 µg/mL (≈ 6.96 µM)
MIC50 (Escherichia coli [32]): 2 µg/mL (≈ 3.76 µM)
MIC90 (Escherichia coli [32]): 3.7 µg/mL (≈ 6.96 µM)
MIC50 (Escherichia coli [33]): 2 µg/mL (≈ 3.76 µM)
MIC90 (Escherichia coli [33]): 3.7 µg/mL (≈ 6.96 µM)
MBC (Escherichia coli [34]): 64 µg/mL (≈ 120 µM)
MBC (Escherichia coli [35]): 4 µg/mL (≈ 7.52 µM)

CCCN1CCN(c2ccc3nc(-c4ccc5nc(-c6ccc(OC)c(OC)c6)[nH]c5c4)[nH]c3c2)CC1
MIC50 (Escherichia coli [1]): 8 µg/mL (≈ 16.1 µM)
MIC90 (Escherichia coli [1]): 14.8 µg/mL (≈ 29.8 µM)
MIC50 (Escherichia coli [2]): 16 µg/mL (≈ 32.2 µM)
MIC90 (Escherichia coli [2]): 29.8 µg/mL (≈ 60 µM)
MIC50 (Escherichia coli [3]): 2 µg/mL (≈ 4.03 µM)
MIC90 (Escherichia coli [3]): 3.7 µg/mL (≈ 7.45 µM)
MIC50 (Escherichia coli [4]): 8 µg/mL (≈ 16.1 µM)
MIC90 (Escherichia coli [4]): 14.5 µg/mL (≈ 29.2 µM)
MBC (Escherichia coli [5]): 4 µg/mL (≈ 8.05 µM)
MBC (Escherichia coli [6]): 8 µg/mL (≈ 16.1 µM)
MBC (Escherichia coli [7]): 16 µg/mL (≈ 32.2 µM)
MIC50 (Escherichia coli [8]): 4 µg/mL (≈ 8.05 µM)
MIC90 (Escherichia coli [8]): 7.5 µg/mL (≈ 15.1 µM)
MIC50 (Escherichia coli [9]): 8 µg/mL (≈ 16.1 µM)
MIC90 (Escherichia coli [9]): 14.9 µg/mL (≈ 30 µM)
MBC (Escherichia coli [10]): 8 µg/mL (≈ 16.1 µM)
MIC50 (Escherichia coli [11]): 2 µg/mL (≈ 4.03 µM)
MIC90 (Escherichia coli [11]): 3.4 µg/mL (≈ 6.85 µM)
MIC50 (Escherichia coli [12]): 8 µg/mL (≈ 16.1 µM)
MIC90 (Escherichia coli [12]): 15.2 µg/mL (≈ 30.6 µM)
MBC (Escherichia coli [13]): 16 µg/mL (≈ 32.2 µM)
MIC50 (Escherichia coli [14]): 4 µg/mL (≈ 8.05 µM)
MIC90 (Escherichia coli [14]): 7.6 µg/mL (≈ 15.3 µM)
MBC (Escherichia coli [15]): 8 µg/mL (≈ 16.1 µM)
MBC (Escherichia coli [16]): 128 µg/mL (≈ 258 µM)
MIC50 (Escherichia coli [17]): 8 µg/mL (≈ 16.1 µM)
MIC90 (Escherichia coli [17]): 15.2 µg/mL (≈ 30.6 µM)
MIC50 (Escherichia coli [18]): 2 µg/mL (≈ 4.03 µM)
MIC90 (Escherichia coli [18]): 3.2 µg/mL (≈ 6.44 µM)
MIC50 (Escherichia coli [19]): 8 µg/mL (≈ 16.1 µM)
MIC90 (Escherichia coli [19]): 14.8 µg/mL (≈ 29.8 µM)
MIC50 (Escherichia coli [20]): 8 µg/mL (≈ 16.1 µM)
MIC90 (Escherichia coli [20]): 15.1 µg/mL (≈ 30.4 µM)
MBC (Escherichia coli [21]): 8 µg/mL (≈ 16.1 µM)
MBC (Escherichia coli [22]): 4 µg/mL (≈ 8.05 µM)
MBC (Escherichia coli [23]): 4 µg/mL (≈ 8.05 µM)
MIC50 (Escherichia coli [24]): 4 µg/mL (≈ 8.05 µM)
MIC90 (Escherichia coli [24]): 7.6 µg/mL (≈ 15.3 µM)
MIC50 (Escherichia coli [25]): 8 µg/mL (≈ 16.1 µM)
MIC90 (Escherichia coli [25]): 12.5 µg/mL (≈ 25.2 µM)
MBC (Escherichia coli [26]): 16 µg/mL (≈ 32.2 µM)
MBC (Escherichia coli [27]): 8 µg/mL (≈ 16.1 µM)
MBC (Escherichia coli [28]): 16 µg/mL (≈ 32.2 µM)
MIC50 (Escherichia coli [29]): 4 µg/mL (≈ 8.05 µM)
MIC90 (Escherichia coli [29]): 7.6 µg/mL (≈ 15.3 µM)
MBC (Escherichia coli [30]): 4 µg/mL (≈ 8.05 µM)
MIC50 (Escherichia coli [31]): 4 µg/mL (≈ 8.05 µM)
MIC90 (Escherichia coli [31]): 7.6 µg/mL (≈ 15.3 µM)
MIC50 (Escherichia coli [32]): 64 µg/mL (≈ 129 µM)
MIC90 (Escherichia coli [32]): 118 µg/mL (≈ 238 µM)
MIC50 (Escherichia coli [33]): 4 µg/mL (≈ 8.05 µM)
MIC90 (Escherichia coli [33]): 7.7 µg/mL (≈ 15.5 µM)
MBC (Escherichia coli [34]): 32 µg/mL (≈ 64.4 µM)
MBC (Escherichia coli [35]): 16 µg/mL (≈ 32.2 µM)
